Reference: patent publication US20040024024A1, “Aromatic sulfone hydroxamates and their use as protease inhibitors” (priority 2001, published 2004)

Columns and labels:
Human recombinant MMP-13 = biological target: T1, Human recombinant MMP-13 (Homo sapiens, UniProt P45452); assay: In vitro MMP inhibition, IC50 determination (fluorogenic substrate I); format: biochemical
T1 construct: made in house; host or cells: baculovirus / insect cells
Protocol: (§1) Several hydroxamates and salts thereof were analyzed in in vitro assays to determine their ability to inhibit the MMP cleavage of peptide substrates. Inhibition (Ki) and IC50 constants were calculated from the assayed hydroxamate-MMP interactions.
(§2) Human recombinant MMP-1, MMP-2, MMP-9, MMP-13, and MMP-14 were used in this assay. All enzymes were prepared in Assignee's laboratories following usual laboratory procedures. Protocols for the preparation and use of these enzymes are available in the scientific literature. See, e.g., Enzyme Nomenclature (Academic Press, San Diego, Calif., 1992) (and the citations therein). See also, Frije et al., J. Biol. Chem., 26(24), 16766-73 (1994).
The expressed proenzyme was first purified over a heparin agarose column, and then over a chelating zinc chloride column. The proenzyme was then activated by APMA for use in the assay. Further details on baculovirus expression systems may be found in, for example, Luckow et al., J. Virol., 67, 4566-79 (1993). See also, O'Reilly et al, Baculovirus Expression Vectors: A Laboratory Manual (W. H. Freeman and Co., New York, N.Y., 1992). See also, King et al., The Baculovirus Expression System: A Laboratory Guide (Chapman & Hall, London, England, 1992).
(§3) All MMPs were activated using 4-aminophenylmercuric acetate (“APMA”, Sigma Chemical, St. Louis, Mo.) or trypsin. MMP-9 also was activated using human recombinant MMP-3 (purified in Assignee's laboratory following standard cloning and purification techniques).
(§4) Two fluorogenic, methoxycoumarin-containing polypeptide substrates were used in the MMP inhibition assays:
(§5) MCA-ProLeuGlyLeuDpaAlaArgNH2 (I)
(§6) Here, “Dpa” is 3-(2,4-dinitrophenyl)-L-2,3-diaminopropionyl group, and “MCA” is 7-methoxycoumarin-4-yl acetyl. Substrate (I) was purchased from Baychem (Redwood City, Calif.), and substrate II was prepared Assignee's laboratory. Substrate I was used in the IC50 determination assays, while substrate II was used in the Ki determination assays. In the absence of MMP inhibitory activity, either substrate is cleaved at the Gly-Leu peptide bond. This cleavage separates the highly fluorogenic peptide from the 2,4-dinitrophenyl quencher, thus resulting in increase of fluorescent intensity.
(§7) The stock solutions of the assayed hydroxamates (or salts thereof) were prepared in 1% dimethyl sulfoxide (DMSO). These stock solutions were diluted in Buffer A (100 mM Tris-HCl, 100 mM NaCl, 10 mM CaCl2, 0.05% polyoxyethylene 23 lauryl ether, pH 7.5) to obtain solutions with different hydroxamate concentrations, i.e., assay solutions with different concentrations of the assayed MMP inhibitory compound. The experiment controls contained the same amount of Buffer A/DMSO as the assayed sample, but contained no hydroxamate (or salt thereof).
(§8) The assays from which the IC50 determinations were made were performed as follows. The MMPs were activated with either trypsin or APMA (4-aminophenylmercuric acetate, Sigma Chemical, St. Louis, Mo.). The assayed hydroxamate samples were, incubated in Microfluorrm White Plates (Dynatech, Chantilly, VA) and analyzed on a Perkin Elmer L550 plate reader (Norwalk, Conn.). The excitation wavelength was 328 nm, and the emission wavelength—415 nm. All samples (assayed hydroxamates and controls) were incubated in separate plates at room temperature in the presence of 4 μM of MMP substrate (I). As stated in the previous paragraph, samples containing varying concentrations of the same assayed hydroxamate were prepared. Inhibition was measured as a reduction in fluorescent intensity as a function of MMP inhibitor concentration.

Human recombinant MMP-2 = biological target: T2, Human recombinant MMP-2 (Homo sapiens, UniProt P08253); assay: as above; format: biochemical
T2 construct: made in house; host or cells: MMP-2-transfected p2AHT2 cells
T2 sequence (P08253 110-660): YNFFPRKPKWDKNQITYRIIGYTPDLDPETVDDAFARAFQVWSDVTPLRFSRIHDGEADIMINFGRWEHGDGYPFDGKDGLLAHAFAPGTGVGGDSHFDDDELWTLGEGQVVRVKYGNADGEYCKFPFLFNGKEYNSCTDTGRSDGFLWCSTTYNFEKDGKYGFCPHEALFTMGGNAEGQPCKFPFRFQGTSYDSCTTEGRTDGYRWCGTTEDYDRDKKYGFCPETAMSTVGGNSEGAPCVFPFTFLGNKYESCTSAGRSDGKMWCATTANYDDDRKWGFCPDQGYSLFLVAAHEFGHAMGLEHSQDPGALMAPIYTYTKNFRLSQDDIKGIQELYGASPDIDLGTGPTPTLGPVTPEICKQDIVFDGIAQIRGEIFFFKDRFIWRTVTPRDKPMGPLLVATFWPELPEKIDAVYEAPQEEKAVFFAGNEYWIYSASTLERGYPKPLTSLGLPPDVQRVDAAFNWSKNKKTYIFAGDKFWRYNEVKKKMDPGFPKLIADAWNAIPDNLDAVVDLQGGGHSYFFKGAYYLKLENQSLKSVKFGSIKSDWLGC
Protocol: as §1, §2
The MMP-2 proenzyme was purified by gelatin Sepharose chromatography from MMP-2-transfected p2AHT2 cells provided by Dr. Gregory Goldberg of Washington University (St. Louis, Mo.).
as §3, §4, §5, §6, §7, §8

[1] = value outside parentheses (Ki in parenthesis)

SMILES	IC50 (Human recombinant MMP-13; [1]) [nM]	IC50 (Human recombinant MMP-2; [1]) [nM]	IC50 (Human recombinant MMP-13; value outside parentheses) [nM]	IC50 (Human recombinant MMP-2; value outside parentheses) [nM]	also measured
O=C(C1CCCCC1)N1CC[C@@H](Oc2ccc(S(=O)(=O)C3(C(=O)NO)CCOCC3)cc2)C1 [Example 425]	3310	> 10000			
COCCN1CCC(C(=O)NO)(S(=O)(=O)c2ccc(OCCCn3nnc(-c4cc(F)ccc4C)n3)cc2)CC1 [Example 141]					IC50 (Human recombinant MMP-13; value outside parenthesis): 3.6 nM; IC50 (Human recombinant MMP-2; value outside parenthesis): 32.5 nM
O=C(NO)C1(S(=O)(=O)c2ccc(OCCCc3cccnc3)cc2)CCOCC1 [Example 575]			2	8.4	
O=C(NO)C1(S(=O)(=O)c2ccc(OCCc3cccc(-c4cncnc4)c3)cc2)CCOCC1 [Example 521]			5.8	62	
O=C(NCCCOc1ccc(S(=O)(=O)C2(C(=O)NO)CCOCC2)cc1)c1cc2cc(O)ccc2cc1O [Example 378]	2.7	655			
O=C(NO)C1(S(=O)(=O)c2ccc(OCCCc3nnc(-c4ccncc4)o3)cc2)CCOCC1 [Example 568]			1.5	21	
NC(=O)c1cccc(-c2noc(CCCOc3ccc(S(=O)(=O)C4(C(=O)NO)CCN(C5CC5)CC4)cc3)n2)c1 [Example 131]					IC50 (Human recombinant MMP-13; value outside parenthesis): 4.5 nM; IC50 (Human recombinant MMP-2; value outside parenthesis): 108 nM
COc1ccc(S(=O)(=O)NCCCOc2ccc(S(=O)(=O)C3(C(=O)NO)CCOCC3)cc2)cc1 [Example 419]	4	120			
O=C(NO)C1(S(=O)(=O)c2ccc(OCCCS(=O)(=O)N3CCC(Oc4ccc(C(F)(F)F)cc4)CC3)cc2)CCOCC1 [Example 279]					IC50 (Human recombinant MMP-13; value outside parenthesis): 9.4 nM; IC50 (Human recombinant MMP-2; value outside parenthesis): 15.9 nM
O=C(NCCOc1ccc(S(=O)(=O)C2(C(=O)NO)CCOCC2)cc1)c1ccc(Br)s1 [Example 620]			4.1	16.2	
COCCN1CCC(C(=O)NO)(S(=O)(=O)c2ccc(OCCCn3nnc(-c4cccs4)n3)cc2)CC1 [Example 143]					IC50 (Human recombinant MMP-13; value outside parenthesis): 1.4 nM; IC50 (Human recombinant MMP-2; value outside parenthesis): 4.9 nM
O=C(c1ccc(OC(F)(F)F)cc1)N1CC[C@@H](Oc2ccc(S(=O)(=O)C3(C(=O)NO)CCOCC3)cc2)C1 [Example 423]	1590	9000			
O=C(NCCCOc1ccc(S(=O)(=O)C2(C(=O)NO)CCOCC2)cc1)N1CCOCC1 [Example 497]			23.5	1450	
O=C(NO)C1(S(=O)(=O)c2ccc(OCCCN3CCCc4ccccc43)cc2)CCOCC1 [Example 412]	41	313			
CC(C)(C)c1cccc(NC(=O)CCCOc2ccc(S(=O)(=O)C3(C(=O)NO)CCOCC3)cc2)c1 [Example 572]			4.7	37.3	
O=C(NCCOc1ccc(S(=O)(=O)C2(C(=O)NO)CCOCC2)cc1)c1ccc(-c2cccc(C(F)(F)F)c2)o1 [Example 610]			4.1	488	
COc1ccc2cc(C(=O)NCCCOc3ccc(S(=O)(=O)C4(C(=O)NO)CCOCC4)cc3)ccc2c1 [Example 380]	0.2	450			
COCCN1CCC(C(=O)NO)(S(=O)(=O)c2ccc(OCCCn3nnc(-c4ccccc4OC)n3)cc2)CC1 [Example 180]					IC50 (Human recombinant MMP-13; value outside parenthesis): 17 nM; IC50 (Human recombinant MMP-2; value outside parenthesis): 443 nM

SMILES	IC50 (Human recombinant MMP-13; [1]) [nM]	IC50 (Human recombinant MMP-2; [1]) [nM]	IC50 (Human recombinant MMP-13; value outside parentheses) [nM]	IC50 (Human recombinant MMP-2; value outside parentheses) [nM]	also measured
O=C(NCCCOc1ccc(S(=O)(=O)C2(C(=O)NO)CCOCC2)cc1)c1cccc2ccccc12 [Example 375]	17	425			
COc1cc2c(cc1OC)C(c1ccccc1)NC(C(=O)OCCCCOc1ccc(S(=O)(=O)C3(C(=O)NO)CCOCC3)cc1)C2 (stereo not drawn) [Example 336]	19.8	301			
O=C(NO)C1(S(=O)(=O)c2ccc(OCCCc3cc(C(F)(F)F)cc(C(F)(F)F)c3)cc2)CCOCC1 [Example 573]			75.1	1710	
O=C(CCCOc1ccc(S(=O)(=O)C2(C(=O)NO)CCOCC2)cc1)c1ccccc1-c1ccccc1 [Example 300]	6.7	12.5			
O=C(NO)C1(S(=O)(=O)c2ccc(OCCCOc3ccccc3C(F)(F)F)cc2)CCOCC1 [Example 444]	7.6	8.9			
CC(=O)N1CC[C@@H](Oc2ccc(S(=O)(=O)C3(C(=O)NO)CCOCC3)cc2)C1 [Example 427]	114	251			
CC(C)N(Cc1ccc(C(=O)CCCOc2ccc(S(=O)(=O)C3(C(=O)NO)CCOCC3)cc2)cc1)C(C)C [Example 298]	18.1	11.9			
O=C(NCCSc1ccc(S(=O)(=O)C2(C(=O)NO)CCOCC2)cc1)c1cc2ccccc2[nH]1 [Example 593]			15.6	6.5	
COc1ccc(C(=O)[C@H](O)CCOc2ccc(S(=O)(=O)C3(C(=O)NO)CCOCC3)cc2)cc1 [Example 318]	97.3	615			
O=C(COc1ccc(S(=O)(=O)C2(C(=O)NO)CCOCC2)cc1)Nc1cccc(-c2ccccc2)c1 [Example 642]			36.9	2890	
COc1cc2c(cc1OC)CN(C(=O)NCCCOc1ccc(S(=O)(=O)C3(C(=O)NO)CCOCC3)cc1)CC2 [Example 496]			8.4	242	
O=C(NO)C1(S(=O)(=O)c2ccc(OCCCCO)cc2)CCOCC1 [Example 451]	9	4.7			
COc1ccc2cc(C(=O)CCCCOc3ccc(S(=O)(=O)C4(C(=O)NO)CCN(C5CC5)CC4)cc3)ccc2c1 [Example 265]					IC50 (Human recombinant MMP-13; value outside parenthesis): 0.2 nM; IC50 (Human recombinant MMP-2; value outside parenthesis): 40 nM
O=C(NO)C1(S(=O)(=O)c2ccc(OCCCc3nc(-c4ccc(C(F)(F)F)cc4)no3)cc2)CCOCC1 [Example 239]					IC50 (Human recombinant MMP-13; value outside parenthesis): 2.5 nM; IC50 (Human recombinant MMP-2; value outside parenthesis): 237 nM
COc1ccc(OC)c(S(=O)(=O)N2CC(Oc3ccc(S(=O)(=O)C4(C(=O)NO)CCOCC4)cc3)C2)c1 [Example 484]	12	640			
CCN1CCC(C(=O)NO)(S(=O)(=O)c2ccc(OCCCSc3nc4ccccc4o3)cc2)CC1 [Example 525]			1.5	7.5	
CS(=O)(=O)c1ccccc1S(=O)(=O)N1CC(Oc2ccc(S(=O)(=O)C3(C(=O)NO)CCOCC3)cc2)C1 [Example 483]	29				
